Marks after values point to notes of the source that are not given here.
Experiment: amounts of β-lactam antibiotic, β-lactamase inhibitor (C18 reverse-phase LC, UV-VIS) and aminoglycoside (HPLC-ELSD) in solution over time
Type: physicochemical

SMILES: CC1(C)[C@H](C(=O)O)N2C(=O)C[C@H]2S1(=O)=O [Sulbactam sodium]
- amount of component as percentage with respect to the amount at the initial time (Example 4: cefoperazone sodium 4 g, sulbactam sodium 0.5 g, gentamicin 80 mg, citrate pH 6.75, 200 mL water, room temperature, Time 0 h): 101.4%
- amount of component as percentage with respect to the amount at the initial time (Example 4: cefoperazone sodium 4 g, sulbactam sodium 0.5 g, gentamicin 80 mg, citrate pH 6.75, 200 mL water, room temperature, Time 1 h): 101.4%
- amount of component as percentage with respect to the amount at the initial time (Example 4: cefoperazone sodium 4 g, sulbactam sodium 0.5 g, gentamicin 80 mg, citrate pH 6.75, 200 mL water, room temperature, Time 2 h): 101.5%
- amount of component as percentage with respect to the amount at the initial time (Example 4: cefoperazone sodium 4 g, sulbactam sodium 0.5 g, gentamicin 80 mg, citrate pH 6.75, 200 mL water, room temperature, Time 4 h): 109.7%
- amount of component as percentage with respect to the amount at the initial time (Example 4: cefoperazone sodium 4 g, sulbactam sodium 0.5 g, gentamicin 80 mg, citrate pH 6.75, 200 mL water, room temperature, Time 6 h): 103.2%
- amount of component as percentage with respect to the amount at the initial time (Example 5: freeze-dried cefoperazone sodium 4 g, sulbactam sodium 0.5 g, citrate pH 6.75, + amikacin sulfate 500 mg, 7 days 0° C., dissolved in 100 mL water, Time 0 h): 101.4%
- amount of component as percentage with respect to the amount at the initial time (Example 5: freeze-dried cefoperazone sodium 4 g, sulbactam sodium 0.5 g, citrate pH 6.75, + amikacin sulfate 500 mg, 7 days 0° C., dissolved in 100 mL water, Time 1 h): 101.4%
- amount of component as percentage with respect to the amount at the initial time (Example 5: freeze-dried cefoperazone sodium 4 g, sulbactam sodium 0.5 g, citrate pH 6.75, + amikacin sulfate 500 mg, 7 days 0° C., dissolved in 100 mL water, Time 2 h): 101.5%
- amount of component as percentage with respect to the amount at the initial time (Example 5: freeze-dried cefoperazone sodium 4 g, sulbactam sodium 0.5 g, citrate pH 6.75, + amikacin sulfate 500 mg, 7 days 0° C., dissolved in 100 mL water, Time 4 h): 109.7%
- amount of component as percentage with respect to the amount at the initial time (Example 5: freeze-dried cefoperazone sodium 4 g, sulbactam sodium 0.5 g, citrate pH 6.75, + amikacin sulfate 500 mg, 7 days 0° C., dissolved in 100 mL water, Time 6 h): 103.2%
- amount of component as percentage with respect to the amount at the initial time (Example 6: freeze-dried cefoperazone sodium 4 g, sulbactam sodium 1 g, citrate pH 6.75, + etimicin sulfate 200 mg, 7 days 0° C., dissolved in 100 mL water, Time 0 h): 99.62%
- amount of component as percentage with respect to the amount at the initial time (Example 6: freeze-dried cefoperazone sodium 4 g, sulbactam sodium 1 g, citrate pH 6.75, + etimicin sulfate 200 mg, 7 days 0° C., dissolved in 100 mL water, Time 1 h): 100.4%
- amount of component as percentage with respect to the amount at the initial time (Example 6: freeze-dried cefoperazone sodium 4 g, sulbactam sodium 1 g, citrate pH 6.75, + etimicin sulfate 200 mg, 7 days 0° C., dissolved in 100 mL water, Time 2 h): 100.2%
- amount of component as percentage with respect to the amount at the initial time (Example 6: freeze-dried cefoperazone sodium 4 g, sulbactam sodium 1 g, citrate pH 6.75, + etimicin sulfate 200 mg, 7 days 0° C., dissolved in 100 mL water, Time 4 h): 100.2%
- amount of component as percentage with respect to the amount at the initial time (Example 7: ceftriaxone sodium 4 g, sulbactam sodium 1 g, gentamicin sulfate 80 mg, citrate pH 6.75, 200 mL water, room temperature (22° C.), Time 0 h): 96.84%
- amount of component as percentage with respect to the amount at the initial time (Example 7: ceftriaxone sodium 4 g, sulbactam sodium 1 g, gentamicin sulfate 80 mg, citrate pH 6.75, 200 mL water, room temperature (22° C.), Time 1 h): 94.43%
- amount of component as percentage with respect to the amount at the initial time (Example 7: ceftriaxone sodium 4 g, sulbactam sodium 1 g, gentamicin sulfate 80 mg, citrate pH 6.75, 200 mL water, room temperature (22° C.), Time 2 h): 93.35%
- amount of component as percentage with respect to the amount at the initial time (Example 7: ceftriaxone sodium 4 g, sulbactam sodium 1 g, gentamicin sulfate 80 mg, citrate pH 6.75, 200 mL water, room temperature (22° C.), Time 4 h): 93.23%
- amount of component as percentage with respect to the amount at the initial time (Example 7: ceftriaxone sodium 4 g, sulbactam sodium 1 g, gentamicin sulfate 80 mg, citrate pH 6.75, 200 mL water, room temperature (22° C.), Time 6 h): 92.13%
- amount of component as percentage with respect to the amount at the initial time (Example 7: ceftriaxone sodium 4 g, sulbactam sodium 1 g, gentamicin sulfate 80 mg, citrate pH 6.75, 200 mL water, room temperature (22° C.), Time 8 h): 93.38%
- amount of component as percentage with respect to the amount at the initial time (Example 10: mezlocillin sodium 2 g, sulbactam sodium 0.5 g, etimicin sulfate 200 mg, citrate pH 6.5, 200 mL water, room temperature, Time 0 h): 98.07%
- amount of component as percentage with respect to the amount at the initial time (Example 10: mezlocillin sodium 2 g, sulbactam sodium 0.5 g, etimicin sulfate 200 mg, citrate pH 6.5, 200 mL water, room temperature, Time 1 h): 98.13%
- amount of component as percentage with respect to the amount at the initial time (Example 10: mezlocillin sodium 2 g, sulbactam sodium 0.5 g, etimicin sulfate 200 mg, citrate pH 6.5, 200 mL water, room temperature, Time 2 h): 72.96%
- amount of component as percentage with respect to the amount at the initial time (Example 10: mezlocillin sodium 2 g, sulbactam sodium 0.5 g, etimicin sulfate 200 mg, citrate pH 6.5, 200 mL water, room temperature, Time 4 h): 95.16%
- amount of component as percentage with respect to the amount at the initial time (Example 10: mezlocillin sodium 2 g, sulbactam sodium 0.5 g, etimicin sulfate 200 mg, citrate pH 6.5, 200 mL water, room temperature, Time 6 h): 99.65%
- amount of component as percentage with respect to the amount at the initial time (Example 10: mezlocillin sodium 2 g, sulbactam sodium 0.5 g, etimicin sulfate 200 mg, citrate pH 6.5, 200 mL water, room temperature, Time 8 h): 104.9%
- amount of component as percentage with respect to the amount at the initial time (Example 11: freeze-dried mezlocillin sodium, sulbactam sodium, citrate pH 6.5, 7 days 0° C., in 100 mL 5% fructose + etimicin sulfate 200 mg, Time 0 h): 114.3%
- amount of component as percentage with respect to the amount at the initial time (Example 11: freeze-dried mezlocillin sodium, sulbactam sodium, citrate pH 6.5, 7 days 0° C., in 100 mL 5% fructose + etimicin sulfate 200 mg, Time 1 h): 95.83%
- amount of component as percentage with respect to the amount at the initial time (Example 11: freeze-dried mezlocillin sodium, sulbactam sodium, citrate pH 6.5, 7 days 0° C., in 100 mL 5% fructose + etimicin sulfate 200 mg, Time 2 h): 93.75%
- amount of component as percentage with respect to the amount at the initial time (Example 11: freeze-dried mezlocillin sodium, sulbactam sodium, citrate pH 6.5, 7 days 0° C., in 100 mL 5% fructose + etimicin sulfate 200 mg, Time 4 h): 93.78%
- amount of component as percentage with respect to the amount at the initial time (Example 11: freeze-dried mezlocillin sodium, sulbactam sodium, citrate pH 6.5, 7 days 0° C., in 100 mL 5% fructose + etimicin sulfate 200 mg, Time 6 h): 95.65%
- amount of component as percentage with respect to the amount at the initial time (Example 11: freeze-dried mezlocillin sodium, sulbactam sodium, citrate pH 6.5, 7 days 0° C., in 100 mL 5% fructose + etimicin sulfate 200 mg, Time 8 h): 101.0%
- amount of component as percentage with respect to the amount at the initial time (Example 14: freeze-dried cefoperazone sodium 4 g, sulbactam sodium 2 g, citrate pH 6.75, 7 days 0° C., in 100 mL water, 10 mL + gentamicin sulfate 16 mg, room temperature, Time 0 h): 92.44%
- amount of component as percentage with respect to the amount at the initial time (Example 14: freeze-dried cefoperazone sodium 4 g, sulbactam sodium 2 g, citrate pH 6.75, 7 days 0° C., in 100 mL water, 10 mL + gentamicin sulfate 16 mg, room temperature, Time 1 h): 91.27%
- amount of component as percentage with respect to the amount at the initial time (Example 14: freeze-dried cefoperazone sodium 4 g, sulbactam sodium 2 g, citrate pH 6.75, 7 days 0° C., in 100 mL water, 10 mL + gentamicin sulfate 16 mg, room temperature, Time 2 h): 90.78%
- amount of component as percentage with respect to the amount at the initial time (Example 14: freeze-dried cefoperazone sodium 4 g, sulbactam sodium 2 g, citrate pH 6.75, 7 days 0° C., in 100 mL water, 10 mL + gentamicin sulfate 16 mg, room temperature, Time 4 h): 88.38* %
- amount of component as percentage with respect to the amount at the initial time (Example 14: freeze-dried cefoperazone sodium 4 g, sulbactam sodium 2 g, citrate pH 6.75, 7 days 0° C., in 100 mL water, 10 mL + gentamicin sulfate 16 mg, room temperature, Time 6 h): 86.86* %
- amount of component as percentage with respect to the amount at the initial time (Example 15: freeze-dried cefoperazone sodium 4 g, sulbactam sodium 4 g, citrate pH 6.75, 7 days 0° C., in 100 mL water, 10 mL + gentamicin sulfate 16 mg, room temperature, Time 0 h): 99.50%
- amount of component as percentage with respect to the amount at the initial time (Example 15: freeze-dried cefoperazone sodium 4 g, sulbactam sodium 4 g, citrate pH 6.75, 7 days 0° C., in 100 mL water, 10 mL + gentamicin sulfate 16 mg, room temperature, Time 1 h): 96.28%
- amount of component as percentage with respect to the amount at the initial time (Example 15: freeze-dried cefoperazone sodium 4 g, sulbactam sodium 4 g, citrate pH 6.75, 7 days 0° C., in 100 mL water, 10 mL + gentamicin sulfate 16 mg, room temperature, Time 2 h): 102.5%
- amount of component as percentage with respect to the amount at the initial time (Example 15: freeze-dried cefoperazone sodium 4 g, sulbactam sodium 4 g, citrate pH 6.75, 7 days 0° C., in 100 mL water, 10 mL + gentamicin sulfate 16 mg, room temperature, Time 4 h): 95.78* %
- amount of component as percentage with respect to the amount at the initial time (Example 15: freeze-dried cefoperazone sodium 4 g, sulbactam sodium 4 g, citrate pH 6.75, 7 days 0° C., in 100 mL water, 10 mL + gentamicin sulfate 16 mg, room temperature, Time 6 h): 70.74* %
- amount of component as percentage with respect to the amount at the initial time (Example 17: freeze-dried cefoperazone sodium 4 g, sulbactam sodium 1 g, citrate pH 6.75, 7 days 0° C., in 100 mL water, 10 mL + amikacin sulfate 40 mg, room temperature, Time 0 h): 105.6%
- amount of component as percentage with respect to the amount at the initial time (Example 17: freeze-dried cefoperazone sodium 4 g, sulbactam sodium 1 g, citrate pH 6.75, 7 days 0° C., in 100 mL water, 10 mL + amikacin sulfate 40 mg, room temperature, Time 1 h): 112.2%
- amount of component as percentage with respect to the amount at the initial time (Example 17: freeze-dried cefoperazone sodium 4 g, sulbactam sodium 1 g, citrate pH 6.75, 7 days 0° C., in 100 mL water, 10 mL + amikacin sulfate 40 mg, room temperature, Time 2 h): 112.6%
- amount of component as percentage with respect to the amount at the initial time (Example 17: freeze-dried cefoperazone sodium 4 g, sulbactam sodium 1 g, citrate pH 6.75, 7 days 0° C., in 100 mL water, 10 mL + amikacin sulfate 40 mg, room temperature, Time 4 h): 118.5%
- amount of component as percentage with respect to the amount at the initial time (Example 17: freeze-dried cefoperazone sodium 4 g, sulbactam sodium 1 g, citrate pH 6.75, 7 days 0° C., in 100 mL water, 10 mL + amikacin sulfate 40 mg, room temperature, Time 6 h): 123.3%
- amount of component as percentage with respect to the amount at the initial time (Example 17: freeze-dried cefoperazone sodium 4 g, sulbactam sodium 1 g, citrate pH 6.75, 7 days 0° C., in 100 mL water, 10 mL + amikacin sulfate 40 mg, room temperature, Time 8 h): 127.1%
- amount of component as percentage with respect to the amount at the initial time (Example 19: ceftriaxone sodium 2 g, sulbactam sodium 2 g, gentamicin sulfate 160 mg, citrate pH 6.75, 200 mL water, room temperature, Time 0 h): 96.84%
- amount of component as percentage with respect to the amount at the initial time (Example 19: ceftriaxone sodium 2 g, sulbactam sodium 2 g, gentamicin sulfate 160 mg, citrate pH 6.75, 200 mL water, room temperature, Time 1 h): 94.43%
- amount of component as percentage with respect to the amount at the initial time (Example 19: ceftriaxone sodium 2 g, sulbactam sodium 2 g, gentamicin sulfate 160 mg, citrate pH 6.75, 200 mL water, room temperature, Time 2 h): 93.35%
- amount of component as percentage with respect to the amount at the initial time (Example 19: ceftriaxone sodium 2 g, sulbactam sodium 2 g, gentamicin sulfate 160 mg, citrate pH 6.75, 200 mL water, room temperature, Time 4 h): 93.23%
- amount of component as percentage with respect to the amount at the initial time (Example 19: ceftriaxone sodium 2 g, sulbactam sodium 2 g, gentamicin sulfate 160 mg, citrate pH 6.75, 200 mL water, room temperature, Time 6 h): 92.13%
- amount of component as percentage with respect to the amount at the initial time (Example 19: ceftriaxone sodium 2 g, sulbactam sodium 2 g, gentamicin sulfate 160 mg, citrate pH 6.75, 200 mL water, room temperature, Time 8 h): 93.38%
